1 compound from patent US20090105245A1, “METHODS FOR TREATING MACULAR EDEMA AND OCULAR ANGIOGENESIS USING AN ANTI-INFLAMMATORY AGENT AND A RECEPTOR TYROSINE KINASE INHIBITOR” (priority 2006, published 2009) can be followed below.

Common to all, as to type: in vivo
Data set [1] has as its system laser-induced choroidal neovascularization (CNV) in the mouse. Briefly: Mouse laser-induced choroidal neovascularization (CNV), prevention, intravitreal injection. As for the experimental part: Methods. CNV was generated by laser-induced rupture of Bruch's membrane. Briefly, 4 to 5 week old male C57BL/6J mice were anesthetized using intraperitoneal administration of ketamine hydrochloride (100 mg/kg) and xylazine (5 mg/kg) and the pupils of both eyes dilated with topical ocular instillation of 1% tropicamide and 2.5% Mydfin®. One drop of topical cellulose (Gonioscopic®) was used to lubricate the cornea. A hand-held cover slip was applied to the cornea and used as a contact lens to aid visualization of the fundus. Three to four retinal burns were placed in randomly assigned eye (right or left eye for each mouse) using the Alcon 532 nm EyeLite laser with a slit lamp delivery system. The laser burns were used to generate a rupture in Bruch's membrane, which was indicated opthalmoscopically by the formation of a bubble under the retina. Only mice with laser burns that produced three bubbles per eye were included in the study. Burns were typically placed at the 3, 6, 9 or 12 o'clock positions in the posterior pole of the retina, avoiding the branch retinal arteries and veins.
Each mouse was randomly assigned into one of the following treatment groups: noninjected controls, sham-injected controls, vehicle-injected mice, or one of three RTKi-injected groups. […]

The subject of data set [2] is VEGF-induced retinal vascular permeability. Briefly: VEGF-induced retinal vascular permeability in the rat (Evans blue), intravitreal injection. The following applies: 10 μl intravitreal. As for the experimental part: METHODS: Adult Sprague-Dawley rats were anesthetized with intramuscular ketamine/xylazine and their pupils dilated with topical cycloplegics. Rats were randomly assigned to intravitreal injection groups of 0% 0.3%, 1.0%, and 3.0% RTKI and a positive control. Ten μl of each compound was intravitreally injected in each treatment eye (n=6 eyes per group). Three days following first intravitreal injection, all animals received an intravitreal injection of 10 μl 1400 ng hr VEGF in both eyes. Twenty-four hours post-injection of VEGF, intravenous infusion of 3% Evans blue dye was performed in all animals, where 50 mg/kg of Evans blue dye was injected via the lateral tail vein during general anesthesia. After the dye had circulated for 90 minutes, the rats were euthanized. The rats were then systemically perfused with balanced salt solution, and then both eyes of each rat were immediately enucleated and the retinas harvested using a surgical microscope. After measurement of the retinal wet weight, the Evans blue dye was extracted by placing the retina in a 0.2 ml formamide (Sigma) and then the homogenized and ultracentrifuged. Blood samples were centrifuged and the plasma diluted 100 fold in formamide. For both retina and plasma samples, 60 μl of supernatant was used to measure the Evans blue dye absorbance (ABS) with at 620/740 nm. The blood-retinal barrier breakdown and subsequent retinal vascular permeability as measured by dye absorbance were calculated as means ±s.e.m. of net ABS/wet weight/plasma ABS. A two-tailed Student's t-test were used for pair wise comparisons between OS and OD eyes in each group. One way ANOVA was used to determine an overall difference between treatment means, where P≦0.05 was considered significant.

Data set [3] deals with existing laser-induced choroidal neovascularization (CNV) in the mouse. Briefly: Mouse laser-induced CNV, regression paradigm, oral gavage from day 7. Particulars: 3 mg/kg/day, oral from day 7.
Data set [4] relates to preretinal neovascularization (NV) in the rat OIR model. Put plainly: Rat OIR model, oral gavage. As for the experimental part: Immediately following euthanasia, retinas from all rat pups were harvested, fixed in 10% neutral buffered formalin for 24 hours, subjected to ADPase staining, and fixed onto slides as whole mounts. Digital images were acquired from each retinal flat mount that was adequately prepared. Computerized image analysis was used to obtain a NV clockhour score from each readable sample. Each clockhour out of 12 total per retina was assessed for the presence or absence of preretinal NV. Statistical comparisons using median scores for NV clockhours from each treatment group were utilized in nonparametric analyses. Each noninjected pup represented one NV score by taking the average value of both eyes and was used in comparisons against each dosage group. Because the pups were randomly assigned and no difference was observed between oxygen-exposed control pups from all litters, the NV scores were combined for all treatment groups. P≦0.05 was considered statistically significant.
METHODS: Pregnant Sprague-Dawley rats were received at 14 days gestation and subsequently gave birth on Day 22±1 of gestation. Immediately following parturition, pups were pooled and randomized into separate litters (n=17 pups/litter), placed into separate shoebox cages inside oxygen delivery chamber, and subjected to an oxygen-exposure profile from Day 0 to Day 14 postpartum. Litters were then placed into room air from Day 14/0 through Day 14/6 (days 14-20 postpartum). Additionally on Day 14/0, each pup was randomly assigned as oxygen-exposed controls, vehicle treated, or drug-treated at 1.5, 5, 10 mg/kg, p.o., BID. At Day 14/6 (20 days postpartum), all animals in both studies were euthanized and retina whole mounts were prepared as described in Example 1 above.

Data set [5] relates to diabetes-induced retinal vascular permeability. Briefly: STZ diabetic rat retinal vascular permeability (Evan's blue albumin permeation), oral gavage. As for the experimental part:
METHODS: Diabetes was induced in male Long-Evans rats with 65 mg/kg streptozotocin (STZ) after an overnight fast. Upon confirmation of diabetes (blood glucose >250 mg/dl), treatment was initiated by oral gavage. Non-diabetic (NDM) and diabetic (DM) rats received oral gavage of either vehicle or RTK inhibitor at 1.5 or 5 mg/kg/d BID. After 2 weeks, jugular vein catheters were implanted 1 day prior to experimentation for the infusion of indicator dye. Retinal vascular permeability, RVP, was measured using Evan's blue albumin permeation (45 mg/kg) after a 2 hour circulation period.

Consider `Cc1ccc(F)c(NC(=O)Nc2ccc(-c3cccc4[nH]nc(N)c34)cc2)c1` [Compound 86, N-[4-[3-amino-1H-indazol-4-yl]phenyl]-N′-(2-fluoro-5-methylphenyl)urea], for which the “CNV vs vehicle injected eyes” value in data set [1] (0.3% RTKi, 5 ul intravitreal (P=0.082)) is listed as “marginal statistical difference”. In addition, in data set [1] (single intravitreal injection, mouse (FIG. 3)), the “inhibition of laser-induced CNV” value was “inhibits laser-induced choroidal neovascularization (CNV)”. In addition, the “decrease of retinal vascular permeability vs vehicle-injected eyes” value in data set [2] (0.3% RTKi) was determined as 50%; in data set [2] (1.0% RTKi) it was 61%; in data set [2] (3% RTKi), 53%. Further, the “regression of existing CNV” value in data set [3] is “did not show a significant regression of existing CNV”. Moreover, in data set [4] (3 mg/kg/day p.o.), the “decrease in NV” value is recorded as “did not have a significant decrease in NV”. The “inhibition of preretinal NV vs vehicle-treated pups” value in data set [4] (10 mg/kg/day p.o.) is on record as “significant inhibition of preretinal NV”. In addition, the “inhibition of preretinal NV” value in data set [4] (20 mg/kg/day p.o.) is given as “complete inhibition of preretinal NV”. In data set [4] (oral gavage, rat OIR (FIG. 2)), the “prevention of preretinal neovascularization (NV)” value is “prevents preretinal neoavascularization (NV)”. Besides, in data set [5] (DM control vs DM treatment groups), the “blood glucose levels and body weights” value was “not different between DM control and DM treatment groups”. For the same compound, in data set [5] (oral RTKi, NDM and DM groups), the “tolerability, systemic or ERG side effects” value is “well tolerated by both NDM and DM groups with no observed systemic or ERG side effects”.
